Assay results as given in US10443082B2, “Concentration gradient test reagent kit and testing method for use in bacterial/fungal drug susceptibility testing” (XINTRUM PHARMACEUTICALS, LTD, priority 2014, dated 2019).
≈ marks a conversion by molar mass, not a printed value.

Legend:
Format in all cases: cell-based
Streptococcus pneumoniae [1] = assay: MIC assay, concentration gradient agar strip method
From the text: (§1) Combination of the pre-fabricated antimicrobial drug and pre-fabricated culture medium to form a test strip unit: the films are removed from the bottom and top of the culture medium container, and the cells of the culture medium container can be inserted into the corresponding cells of the drug container. Then, the drug container is covered with a lid, and the pressure created in the process causes the antimicrobial drug at the bottoms of the cells to come into contact with the solid culture medium, and therefore dissolved in the agar culture medium to reach a specific concentration. To use the solid culture medium, a bacterial culture solution can be applied on the upper surface of the solid culture medium in each cell of the culture medium container. Then the culture medium container is covered with a lid, and then kept at 35° C. for 16-20 hours before the culture result is visually checked. When the drug concentration is higher than the MIC for the bacteria, no bacteria is observed on the surface of the gel. When the drug concentration is lower than the MIC, the bacteria grows on the surface of the culture medium and eventually develops a bacterial colony thereon. The lowest drug concentration at which no bacteria is observed on the gel surface is considered as the MIC of the antimicrobial drug for the strain under test.
(§2) This embodiment still uses a drug container with 12 round cells, and each round cell has internal dimensions of 4 mm×6 mm (bottom's radius×height). However, the experimental strains in use are Streptococcus pneumoniae. […] The bacterial lawn on the drug-free control agar blocks is expected to grow well; and • 8) performing an MIC assay on the test strains with the tube broth dilution method.

Streptococcus pneumoniae [2] = assay: MIC assay, tube broth dilution method; conditions: read-out: MIC, Concentration (tube broth dilution method)
From the text: as §2

Enterobacter cloacae [3] = assay: MIC assay, concentration gradient agar strip method
From the text: as §1
(§3) A concentration gradient measurement method for use in bacterial/fungal drug susceptibility testing is provided. […] The bacterial lawn on the drug-free control agar blocks is expected to grow well; and • 8) in the meantime, performing an MIC assay on the test strains with tube broth dilution method.

Escherichia coli [4] = assay: as above
From the text: as §1, §3

Klebsiella oxytoca [5] = assay: as above
From the text: as §1, §3

Klebsiella pneumoniae [6] = assay: as above
From the text: as §1, §3

Proteus mirabilis [7] = assay: as above; conditions: Strain No. 27 Proteus mirabilis
From the text: as §1, §3

Enterobacter cloacae [8] = assay: MIC assay, tube broth dilution method
From the text: as §3

Escherichia coli [9] = assay: MIC assay, tube broth dilution method; conditions: read-out: MIC, Concentration (tube broth dilution method)
From the text: as §3

Klebsiella oxytoca [10] = assay: MIC assay, tube broth dilution method
From the text: as §3

Klebsiella pneumoniae [11] = assay: MIC assay, tube broth dilution method; conditions: read-out: MIC, Concentration (tube broth dilution method)
From the text: as §3

Proteus mirabilis [12] = assay: MIC assay, tube broth dilution method; conditions: Strain No. 27 Proteus mirabilis; read-out: MIC, Concentration (tube broth dilution method)
From the text: as §3

[13] = Strain No. 1 Streptococcus pneumoniae
[14] = Strain No. 2 Streptococcus pneumoniae
[15] = Strain No. 3 Streptococcus pneumoniae
[16] = Strain No. 4 Streptococcus pneumoniae
[17] = Strain No. 5 Streptococcus pneumoniae
[18] = Strain No. 6 Streptococcus pneumoniae
[19] = Strain No. 7 Streptococcus pneumoniae
[20] = Strain No. 8 Streptococcus pneumoniae
[21] = Strain No. 9 Streptococcus pneumoniae
[22] = Strain No. 10 Streptococcus pneumoniae
[23] = Strain No. 11 Streptococcus pneumoniae
[24] = Strain No. 12 Streptococcus pneumoniae
[25] = Strain No. 13 Streptococcus pneumoniae
[26] = Strain No. 14 Streptococcus pneumoniae
[27] = Strain No. 15 Streptococcus pneumoniae
[28] = Strain No. 16 Streptococcus pneumoniae
[29] = Strain No. 17 Streptococcus pneumoniae
[30] = Strain No. 18 Streptococcus pneumoniae
[31] = Strain No. 19 Streptococcus pneumoniae
[32] = Strain No. 20 Streptococcus pneumoniae
[33] = Strain No. 29 Enterobacter cloacae
[34] = Strain No. 25 Klebsiella oxytoca
[35] = Strain No. 1 Klebsiella pneumoniae
[36] = Strain No. 2 Klebsiella pneumoniae
[37] = Strain No. 3 Klebsiella pneumoniae
[38] = Strain No. 4 Klebsiella pneumoniae
[39] = Strain No. 5 Klebsiella pneumoniae
[40] = Strain No. 6 Klebsiella pneumoniae
[41] = Strain No. 7 Klebsiella pneumoniae
[42] = Strain No. 8 Klebsiella pneumoniae
[43] = Strain No. 18 Klebsiella pneumoniae
[44] = Strain No. 21 Klebsiella pneumoniae
[45] = Strain No. 24 Klebsiella pneumoniae

## CC1(C)S[C@@H]2[C@H](NC(=O)[C@H](N)c3ccc(O)cc3)C(=O)N2[C@H]1C(=O)O [Amoxicillin]
Streptococcus pneumoniae [1]; [13]
  MIC: 0.12 µg/mL
Streptococcus pneumoniae [1]; [14]
  MIC: 0.12 µg/mL
Streptococcus pneumoniae [1]; [15]
  MIC: 0.25 µg/mL
Streptococcus pneumoniae [1]; [16]
  MIC: 0.25 µg/mL
Streptococcus pneumoniae [1]; [17]
  MIC: 0.5 µg/mL
Streptococcus pneumoniae [1]; [18]
  MIC: 0.12 µg/mL
Streptococcus pneumoniae [1]; [19]
  MIC: 0.25 µg/mL
Streptococcus pneumoniae [1]; [20]
  MIC: 1 µg/mL
Streptococcus pneumoniae [1]; [21]
  MIC: 0.25 µg/mL
Streptococcus pneumoniae [1]; [22]
  MIC: 2 µg/mL
Streptococcus pneumoniae [1]; [23]
  MIC: 0.12 µg/mL
Streptococcus pneumoniae [1]; [24]
  MIC: 0.06 µg/mL
Streptococcus pneumoniae [1]; [25]
  MIC: 0.06 µg/mL
Streptococcus pneumoniae [1]; [26]
  MIC: 2 µg/mL
Streptococcus pneumoniae [1]; [27]
  MIC: 0.12 µg/mL
Streptococcus pneumoniae [1]; [28]
  MIC: 0.12 µg/mL
Streptococcus pneumoniae [1]; [29]
  MIC: 1 µg/mL
Streptococcus pneumoniae [1]; [30]
  MIC: 0.5 µg/mL
Streptococcus pneumoniae [1]; [31]
  MIC: 0.25 µg/mL
Streptococcus pneumoniae [1]; [32]
  MIC: 0.12 µg/mL
Streptococcus pneumoniae [2]; [13]
  MIC: 0.12 µg/mL (≈ 0.328 µM)
Streptococcus pneumoniae [2]; [14]
  MIC: 0.12 µg/mL (≈ 0.328 µM)
Streptococcus pneumoniae [2]; [15]
  MIC: 0.12 µg/mL (≈ 0.328 µM)
Streptococcus pneumoniae [2]; [16]
  MIC: 0.25 µg/mL (≈ 0.684 µM)
Streptococcus pneumoniae [2]; [17]
  MIC: 0.5 µg/mL (≈ 1.37 µM)
Streptococcus pneumoniae [2]; [18]
  MIC: 0.12 µg/mL (≈ 0.328 µM)
Streptococcus pneumoniae [2]; [19]
  MIC: 0.25 µg/mL (≈ 0.684 µM)
Streptococcus pneumoniae [2]; [20]
  MIC: 0.5 µg/mL (≈ 1.37 µM)
Streptococcus pneumoniae [2]; [21]
  MIC: 0.25 µg/mL (≈ 0.684 µM)
Streptococcus pneumoniae [2]; [22]
  MIC: 2 µg/mL (≈ 5.47 µM)
Streptococcus pneumoniae [2]; [23]
  MIC: 0.12 µg/mL (≈ 0.328 µM)
Streptococcus pneumoniae [2]; [24]
  MIC: 0.06 µg/mL (≈ 0.164 µM)
Streptococcus pneumoniae [2]; [25]
  MIC: 0.12 µg/mL (≈ 0.328 µM)
Streptococcus pneumoniae [2]; [26]
  MIC: 2 µg/mL (≈ 5.47 µM)
Streptococcus pneumoniae [2]; [27]
  MIC: 0.12 µg/mL (≈ 0.328 µM)
Streptococcus pneumoniae [2]; [28]
  MIC: 0.12 µg/mL (≈ 0.328 µM)
Streptococcus pneumoniae [2]; [29]
  MIC: 1 µg/mL (≈ 2.74 µM)
Streptococcus pneumoniae [2]; [30]
  MIC: 1 µg/mL (≈ 2.74 µM)
Streptococcus pneumoniae [2]; [31]
  MIC: 0.12 µg/mL (≈ 0.328 µM)
Streptococcus pneumoniae [2]; [32]
  MIC: 0.12 µg/mL (≈ 0.328 µM)

## CO/N=C(\C(=O)N[C@@H]1C(=O)N2C(C(=O)O)=C(COC(C)=O)CS[C@H]12)c1csc(N)n1 [Cefotaxime]
Enterobacter cloacae [3]; Strain No. 28 Enterobacter cloacae
  MIC: 16 µg/mL
Enterobacter cloacae [3]; [33]
  MIC, Concentration (gradient agar strip method): 16.0 µg/mL
Escherichia coli [4]; Strain No. 9 Escherichia coli
  MIC: 8 µg/mL
Escherichia coli [4]; Strain No. 10 Escherichia coli
  MIC: 1 µg/mL
Escherichia coli [4]; Strain No. 11 Escherichia coli
  MIC: 2 µg/mL
Escherichia coli [4]; Strain No. 12 Escherichia coli
  MIC: 4 µg/mL
Escherichia coli [4]; Strain No. 13 Escherichia coli
  MIC: 4 µg/mL
Escherichia coli [4]; Strain No. 14 Escherichia coli
  MIC: 8 µg/mL
Escherichia coli [4]; Strain No. 15 Escherichia coli
  MIC: 2 µg/mL
Escherichia coli [4]; Strain No. 16 Escherichia coli
  MIC: 4 µg/mL
Escherichia coli [4]; Strain No. 17 Escherichia coli
  MIC: 4 µg/mL
Escherichia coli [4]; Strain No. 19 Escherichia coli
  MIC: 16 µg/mL
Escherichia coli [4]; Strain No. 20 Escherichia coli
  MIC: 4 µg/mL
Escherichia coli [4]; Strain No. 23 Escherichia coli
  MIC: 8 µg/mL
Escherichia coli [4]; Strain No. 26 Escherichia coli
  MIC: 4 µg/mL
Escherichia coli [4]; Strain No. 30 Escherichia coli
  MIC: 8 µg/mL
Klebsiella oxytoca [5]; Strain No. 22 Klebsiella oxytoca
  MIC: 8 µg/mL
Klebsiella oxytoca [5]; [34]
  MIC, Concentration (gradient agar strip method): 8.0 µg/mL
Klebsiella pneumoniae [6]; [35]
  MIC: 4 µg/mL
Klebsiella pneumoniae [6]; [36]
  MIC: 4 µg/mL
Klebsiella pneumoniae [6]; [37]
  MIC: 4 µg/mL
Klebsiella pneumoniae [6]; [38]
  MIC: 2 µg/mL
Klebsiella pneumoniae [6]; [39]
  MIC: 2 µg/mL
Klebsiella pneumoniae [6]; [40]
  MIC: 4 µg/mL
Klebsiella pneumoniae [6]; [41]
  MIC: 8 µg/mL
Klebsiella pneumoniae [6]; [42]
  MIC: 4 µg/mL
Klebsiella pneumoniae [6]; [43]
  MIC: 16 µg/mL
Klebsiella pneumoniae [6]; [44]
  MIC: 8 µg/mL
Klebsiella pneumoniae [6]; [45]
  MIC: 4 µg/mL
Proteus mirabilis [7]
  MIC: 8 µg/mL
Enterobacter cloacae [8]; Strain No. 28 Enterobacter cloacae, read-out: MIC, Concentration (tube broth dilution method)
  MIC: 16 µg/mL (≈ 35.1 µM)
Enterobacter cloacae [8]; [33]
  MIC, Concentration (tube broth dilution method): 16.0 µg/mL (≈ 35.1 µM)
Escherichia coli [9]; Strain No. 9 Escherichia coli
  MIC: 8 µg/mL (≈ 17.6 µM)
Escherichia coli [9]; Strain No. 10 Escherichia coli
  MIC: 1 µg/mL (≈ 2.2 µM)
Escherichia coli [9]; Strain No. 11 Escherichia coli
  MIC: 4 µg/mL (≈ 8.78 µM)
Escherichia coli [9]; Strain No. 12 Escherichia coli
  MIC: 4 µg/mL (≈ 8.78 µM)
Escherichia coli [9]; Strain No. 13 Escherichia coli
  MIC: 4 µg/mL (≈ 8.78 µM)
Escherichia coli [9]; Strain No. 14 Escherichia coli
  MIC: 8 µg/mL (≈ 17.6 µM)
Escherichia coli [9]; Strain No. 15 Escherichia coli
  MIC: 4 µg/mL (≈ 8.78 µM)
Escherichia coli [9]; Strain No. 16 Escherichia coli
  MIC: 4 µg/mL (≈ 8.78 µM)
Escherichia coli [9]; Strain No. 17 Escherichia coli
  MIC: 4 µg/mL (≈ 8.78 µM)
Escherichia coli [9]; Strain No. 19 Escherichia coli
  MIC: 16 µg/mL (≈ 35.1 µM)
Escherichia coli [9]; Strain No. 20 Escherichia coli
  MIC: 4 µg/mL (≈ 8.78 µM)
Escherichia coli [9]; Strain No. 23 Escherichia coli
  MIC: 8 µg/mL (≈ 17.6 µM)
Escherichia coli [9]; Strain No. 26 Escherichia coli
  MIC: 4 µg/mL (≈ 8.78 µM)
Escherichia coli [9]; Strain No. 30 Escherichia coli
  MIC: 8 µg/mL (≈ 17.6 µM)
Klebsiella oxytoca [10]; Strain No. 22 Klebsiella oxytoca, read-out: MIC, Concentration (tube broth dilution method)
  MIC: 8 µg/mL (≈ 17.6 µM)
Klebsiella oxytoca [10]; [34]
  MIC, Concentration (tube broth dilution method): 8.0 µg/mL (≈ 17.6 µM)
Klebsiella pneumoniae [11]; [35]
  MIC: 4 µg/mL (≈ 8.78 µM)
Klebsiella pneumoniae [11]; [36]
  MIC: 4 µg/mL (≈ 8.78 µM)
Klebsiella pneumoniae [11]; [37]
  MIC: 2 µg/mL (≈ 4.39 µM)
Klebsiella pneumoniae [11]; [38]
  MIC: 2 µg/mL (≈ 4.39 µM)
Klebsiella pneumoniae [11]; [39]
  MIC: 2 µg/mL (≈ 4.39 µM)
Klebsiella pneumoniae [11]; [40]
  MIC: 4 µg/mL (≈ 8.78 µM)
Klebsiella pneumoniae [11]; [41]
  MIC: 8 µg/mL (≈ 17.6 µM)
Klebsiella pneumoniae [11]; [42]
  MIC: 4 µg/mL (≈ 8.78 µM)
Klebsiella pneumoniae [11]; [43]
  MIC: 16 µg/mL (≈ 35.1 µM)
Klebsiella pneumoniae [11]; [44]
  MIC: 8 µg/mL (≈ 17.6 µM)
Klebsiella pneumoniae [11]; [45]
  MIC: 4 µg/mL (≈ 8.78 µM)
Proteus mirabilis [12]
  MIC: 4 µg/mL (≈ 8.78 µM)
